Results on five compounds are retold here after BindingDB's records for patent US20240400579 (Genentech, 2024).

In general, Ki refers to the equilibrium dissociation constant of an inhibitor or competing ligand from its target. A high value points to weaker binding.

Molecules are shown by their SMILES.

T1 sequence (Q15125 whole entry): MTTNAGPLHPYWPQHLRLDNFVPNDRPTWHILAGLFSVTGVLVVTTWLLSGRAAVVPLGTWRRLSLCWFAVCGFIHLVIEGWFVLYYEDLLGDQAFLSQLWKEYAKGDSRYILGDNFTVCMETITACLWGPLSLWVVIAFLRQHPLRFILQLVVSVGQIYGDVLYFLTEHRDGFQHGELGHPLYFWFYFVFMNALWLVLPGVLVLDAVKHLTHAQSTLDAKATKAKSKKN

In one assay the target is T1, 3-beta-hydroxysteroid-Delta(8),Delta(7)-isomerase (Homo sapiens, UniProt Q15125). Kind of assay: Determination of Binding Affinity to EBP. On the procedure:
This binding solution was centrifuged at 400 g for 5 minutes to collect the bead/membrane mixture. After re-suspending the pellet in binding buffer at the same calculated volume with 0.01% BSA (Sigma A1933), the bead/membrane mixture was added in 384-well low-binding surface plate (PerkinElmer Cat #6057480) at 25 i/well. Radioligand at different concentrations with and without the non-radio-labeled same ligand 5 uM (for nonspecific and total signal, respectively) was added to bring final volume to 50 i/well with DMSO concentration at 0.1%. At equilibrium (3 hours after ligand addition), radiometric signal CPM was counted by using a Microbeta2 microplate counter (Perkinelmer).
`CC(C)(Cc1ccc(C(F)(F)F)cc1)CN1CCC2(C1)CS(=O)(=O)C2` [US20240400579, Example 125] displayed a Ki of 56 nM.

The target of another assay is T1, 3-beta-hydroxysteroid-Delta(8),Delta(7)-isomerase. Kind of assay: Determination of Binding Affinity to EBP-7-Dehydrocholesterol Reductase. The method, then:
Compounds were prepared in a 96-well U bottom plate using an Echo550 machine and 10 mM compound DMSO stock solution, followed by an 8-dose 5-fold serial dilutions protocol with final testing compound concentration ranging from 0.06 to 5000 nM, with DMSO back fill to 100 nL/well and n=2. […] The UniFilter-96 GF/B plates were pre-treated by adding 50 μl/well of 0.3% (v/v) PEI to UniFilter-96 GF/B plates. The plates were sealed and incubated at 4° C. for 3 hrs. Then, the plates were washed with ice-cold assay buffer 3 times. The radioligand binding assay was prepared by adding assay buffer diluted hEBP-DHCR7 membrane at 66.7 μg/ml x 150 μl/well into the 96-well compound plate to reach 10 μg membrane per well. Then, the assay buffer diluted [3H]-Compound 118A* was added at 25 nM×50 μl/well. Following this, the plate was centrifuged at 1000 rpm for 30 secs. The plate was then sealed and agitated at 600 rpm at 22° C. for 5 min, and then incubated at 22° C. for 3 hrs. The incubation was stopped by transferring the binding solution to the pre-treated UniFilter-96 GF/B plate, vacuum filtrated, and then washed four times with ice-cold assay buffer. Following this, the plates were dried at 37° C. for 45 min. The plates were then sealed at the bottom. 40 μl/well of scintillation cocktail was added to the plates. A MicroBeta2 microplate counter was then used to read the plate and analyze the data. For reference and test compounds, the results are expressed as % Inhibition, using the normalization equation: N=100-100×(U−C2)/(C1−C2), where U is the unknown value, C1 is the average of high controls, and C2 is the average value of low controls. The IC50 was determined by fitting percentage of inhibition as a function of compound concentrations with Hill equation using XLfit.
`O=S1(=O)CC2(CCN(CCCc3ccc(C(F)(F)F)cc3)C2)C1` [US20240400579, Example 113] returned a Ki of 9.45 nM. In turn, `C[C@H](Cc1ccc(C2CCCCO2)c(Cl)c1)CN1CCC2(C1)CS(=O)(=O)C2` (stereo partly specified) [US20240400579, Example 124A] gave a Ki of 18.5 nM.

For the compound `C[C@@H](Cc1ccc([C@@H]2CCCCO2)c(Cl)c1)CN1CCC2(C1)CS(=O)(=O)C2` [US20240400579, Example 124B], the Ki stood at 25.3 nM. This Ki and that of the compound before are within 1.5-fold of each other. In the case of `CC(C)(Cc1ccc(C(F)(F)F)cc1)CN1CCC2(C1)CS(=O)(=O)C2` [US20240400579, Example 125], the Ki came to 4.02 nM. With `O=S1(=O)CC2(CCN(CCOc3cnc(C(F)(F)F)c(Cl)c3)CC2)C1` [US20240400579, Example 242], the affinity, expressed as Ki, was 13.1 nM.
